Among the data in ChEMBL document CHEMBL1151007, “Synthesis and in vitro cytotoxicity of (RS)-20-desethyl-20-substituted camptothecin analogues” (Bioorg Med Chem Lett, 1996) are IC50 values, retold here.

The structures appear in SMILES notation. Bounds are passed on as bounds.

The term IC50 denotes the midpoint of a concentration-inhibition curve.

Common to all, as to assay type: functional, cell-based
Assay [1] concerns A 172. The assay is described as follows: In vitro cytotoxicity against A172 human tumor cell lines.
Assay [2] concerns Caov-3 cell line. The assay is described as follows: In vitro cytotoxicity against CAOV-3 human tumor cell line.
For assay [3], the system named is DLD-1. The assay is described as follows: In vitro cytotoxicity against DLD-1 human tumor cell lines.
Assay [4] deals with KATO III stomach cancer cell line. The assay is described as follows: In vitro cytotoxicity against KATO-III human tumor cell line.
Assay [5] deals with L1210. The assay is described as follows: In vitro cytotoxicity against L1210 mouse leukemia tumor cell line.

With `CC(=O)OCC1(O)C(=O)OCc2c1cc1n(c2=O)Cc2cc3ccccc3nc2-1` (stereo not given), the IC50 in assay [1] amounted to 1.53 µM; in assay [2] it was 0.82 µM; in assay [3] it was 1.22 µM; in assay [4], 9.43 µM; in assay [5], 1.71 µM.
Take `CC(C)NC(=O)OCCC1(O)C(=O)OCc2c1cc1n(c2=O)Cc2cc3ccccc3nc2-1` (stereo not given): the IC50 in assay [1] worked out at 5.25 µM; in assay [2], 1.42 µM; in assay [3] it was 11 µM; in assay [4], 46.5 µM; in assay [5], 9.41 µM.
For the molecule `CCOCOCCC1(O)C(=O)OCc2c1cc1n(c2=O)Cc2cc3ccccc3nc2-1` (stereo not given), the IC50 in assay [1] came to 1.37 µM; in assay [2] it was 1.85 µM; in assay [3], 1.07 µM; in assay [4] it was 19.3 µM; in assay [5] it was 1.42 µM.
As to `O=C1OCc2c(cc3n(c2=O)Cc2cc4ccccc4nc2-3)C1(O)CCO` (stereo not given), the IC50 in assay [1] was found to be 4.47 µM; in assay [2], 6.31 µM; in assay [3], 2.5 µM; in assay [4] it was 9.72 µM; in assay [5], 6.31 µM.
In the case of `COCCOCOCC1(O)C(=O)OCc2c1cc1n(c2=O)Cc2cc3ccccc3nc2-1` (stereo not given), the 50% inhibitory concentration (IC50) was determined as 4.38 µM in assay [1]; 6 µM in assay [2]; 25.8 µM in assay [3]; 83.5 µM in assay [4]; 22.2 µM in assay [5].
For `O=C(Nc1ccccc1)OCC1(O)C(=O)OCc2c1cc1n(c2=O)Cc2cc3ccccc3nc2-1` (stereo not given), the 50% inhibitory concentration (IC50) in assay [1] amounted to 2.77 µM; in assay [2], 1.58 µM; in assay [3], 4.24 µM; in assay [4], 13.1 µM; in assay [5], 2.77 µM.
For `COCC(=O)OCCC1(O)C(=O)OCc2c1cc1n(c2=O)Cc2cc3ccccc3nc2-1` (stereo not given), the IC50 was determined as 6.99 µM in assay [1]; 6.39 µM in assay [2]; 31.8 µM in assay [3]; 3.05 µM in assay [4]; 24.5 µM in assay [5].
Regarding `CCOCOCC1(O)C(=O)OCc2c1cc1n(c2=O)Cc2cc3ccccc3nc2-1` (stereo not given), the IC50 stood at 11.1 µM in assay [1]; 17.6 µM in assay [2]; 17.1 µM in assay [3]; 40.7 µM in assay [4]; 3.4 µM in assay [5].
Consider `CC(=O)OCCC1(O)C(=O)OCc2c1cc1n(c2=O)Cc2cc3ccccc3nc2-1` (stereo not given), for which the IC50 in assay [1] came out at 3.99 µM; in assay [2], 4.23 µM; in assay [3] it was 7.04 µM; in assay [4], 0.98 µM; in assay [5], 5.09 µM.
For the molecule `COCCOCOCCC1(O)C(=O)OCc2c1cc1n(c2=O)Cc2cc3ccccc3nc2-1` (stereo not given), the IC50 in assay [1] is 4.04 µM; in assay [2] it was 1.92 µM; in assay [3] it was 15.1 µM; in assay [4], 53 µM; in assay [5], 4.97 µM.
For the molecule `CC(C)NC(=O)OCC1(O)C(=O)OCc2c1cc1n(c2=O)Cc2cc3ccccc3nc2-1` (stereo not given), the IC50 is 11.2 µM in assay [1]; 22.5 µM in assay [2]; 23.4 µM in assay [3]; 72.3 µM in assay [4]; 5.97 µM in assay [5].
Turning to `O=C(Nc1ccccc1)OCCC1(O)C(=O)OCc2c1cc1n(c2=O)Cc2cc3ccccc3nc2-1` (stereo not given), the IC50 in assay [1] was 0.06 µM; in assay [2] it was 3.72 µM; in assay [3], 1.2 µM; in assay [4] it was 5.38 µM; in assay [5], 6.87 µM.
Regarding `COCC(=O)OCC1(O)C(=O)OCc2c1cc1n(c2=O)Cc2cc3ccccc3nc2-1` (stereo not given), the IC50 in assay [1] was 17.6 µM; in assay [2] it was 12.9 µM; in assay [3], 47.1 µM; in assay [4], above 100 µM; in assay [5], 13.6 µM.
For `O=C1OCc2c(cc3n(c2=O)Cc2cc4ccccc4nc2-3)C1(O)CO` (stereo not given), the IC50 was found to be 7.19 µM in assay [1]; 2.17 µM in assay [2]; 17.8 µM in assay [3]; 11.5 µM in assay [4]; 3.97 µM in assay [5].
Take `COCOCC1(O)C(=O)OCc2c1cc1n(c2=O)Cc2cc3ccccc3nc2-1` (stereo not given): the IC50 was 8.39 µM in assay [1]; 4 µM in assay [2]; 2.41 µM in assay [3]; 23.2 µM in assay [4]; 1.65 µM in assay [5].
